{
  "source": "patent US4971975A",
  "about": "(priority 1987, dated 1990)",
  "key": {"[1]": {"molecular_target": "muscarinic receptors", "assay_type": "binding, Hooded Lister rats", "conditions": "displacement of antagonist 3H-QNB (0.27 nM), rat cerebral cortex membranes, 37° C., 30 min"}, "[2]": {"molecular_target": "muscarinic receptors", "test": "Radio ligand binding: displacement of the muscarinic agonist 3H-OXO-M from rat cerebral cortex membranes", "design": "species or system Hooded Lister rats", "conditions": "displacement of agonist 3H-OXO-M (2 nM), 2 mM magnesium chloride, 37° C., 30 min"}},
  "note": "Where a name gives a salt, the structure may show the parent alone. Read-outs that look alike come from different tables or passages of the source.",
  "data": [
    {"compound": "Cc1nnc(C23CCN(CC2)C3)o1", "note": "[Compound E17, 4-(2-Methyl-1,3,4-oxadiazol-5-yl)-1-azabicyclo[2.2.1]heptane oxalate salt]", "values": [
      {"measurement": "IC50", "setting": "[1]", "result": 48000, "unit": "nM"},
      {"measurement": "IC50", "setting": "[2]", "result": 230, "unit": "nM"}
    ]},
    {"compound": "c1coc(C23CCCN(CC2)C3)c1", "note": "(centres unmarked) [Compound E21, 5-(Fur-2-yl)-1-azabicyclo[3.2.1]octane hydrochloride salt]", "values": [
      {"measurement": "IC50", "setting": "[1]", "result": 3800, "unit": "nM"},
      {"measurement": "IC50", "setting": "[2]", "result": 34, "unit": "nM"}
    ]},
    {"compound": "c1cc(C23CCCN(CC2)C3)on1", "note": "(centres unmarked) [Compound E15, 5-(1,2-Oxazol-5-yl)-1-azabicyclo[3.2.1]octane oxalate salt]", "values": [
      {"measurement": "IC50", "setting": "[1]", "result": 7800, "unit": "nM"},
      {"measurement": "IC50", "setting": "[2]", "result": 130, "unit": "nM"}
    ]},
    {"compound": "Cc1noc(C23CCCN(CC2)C3)n1", "note": "(centres unmarked) [Compound E10, 5-(3-Methyl-1,2,4-oxadiazol-5-yl)-1-azabicyclo[3.2.1]octane oxalate salt]", "values": [
      {"measurement": "IC50", "setting": "[1]", "result": 4000, "unit": "nM"},
      {"measurement": "IC50", "setting": "[2]", "result": 17, "unit": "nM"}
    ]},
    {"compound": "Cc1noc(C23CCN(CC2)C3)n1", "note": "[Compound E11, 4-(3-Methyl-1,2,4-oxadiazol-5-yl)-1-azabicyclo[2.2.1]-heptane oxalate salt]", "values": [
      {"measurement": "IC50", "setting": "[1]", "result": 14000, "unit": "nM"},
      {"measurement": "IC50", "setting": "[2]", "result": 93, "unit": "nM"}
    ]},
    {"compound": "c1coc(C23CCCN(CC2)C3)n1", "note": "(centres unmarked) [Compound E12, 5-(1,3-Oxazol-2-yl)-1-azabicyclo[3.2.1]octane oxalate salt]", "values": [
      {"measurement": "IC50", "setting": "[1]", "result": 15000, "unit": "nM"},
      {"measurement": "IC50", "setting": "[2]", "result": 145, "unit": "nM"}
    ]},
    {"compound": "Cc1nnc(C23CCCN(CC2)C3)o1", "note": "(centres unmarked) [Compound E13, 5-(2-Methyl-1,3,4-oxadiazol-5-yl)-1-azabicyclo3.2.1]octane oxalate salt]", "values": [
      {"measurement": "IC50", "setting": "[1]", "result": 9400, "unit": "nM"},
      {"measurement": "IC50", "setting": "[2]", "result": 39, "unit": "nM"}
    ]},
    {"compound": "c1nnc(C23CCCN(CC2)C3)o1", "note": "(centres unmarked) [Compound E14, 5-(1,3,4-Oxadiazol-2-yl)-1-azabicyclo[3.2.1]octane oxalate salt]", "values": [
      {"measurement": "IC50", "setting": "[1]", "result": 9000, "unit": "nM"},
      {"measurement": "IC50", "setting": "[2]", "result": 160, "unit": "nM"}
    ]},
    {"compound": "COC(=O)C12CCN(CC1)C2", "note": "[Compound E6, Methyl 1-azabicyclo[2.2.1]hept-4-ylcarboxylate oxalate salt]", "values": [
      {"measurement": "IC50", "setting": "[1]", "result": 29000, "unit": "nM"},
      {"measurement": "IC50", "setting": "[2]", "result": 42, "unit": "nM"}
    ]},
    {"compound": "COC(=O)C12CCCN(CC1)C2", "note": "(centres unmarked) [Compound E3, Methyl 1-azabicyclo[3.2.1]oct-5-ylcarboxylate oxalate salt]", "values": [
      {"measurement": "IC50", "setting": "[1]", "result": 6700, "unit": "nM"},
      {"measurement": "IC50", "setting": "[2]", "result": 14, "unit": "nM"}
    ]}
  ]
}
